Assay results reported in patent US10781201B2, “Benzimidazole derivative having JNK inhibitory activity and use thereof” (INDUSTRY-UNIVERSITY COOPERATION FOUNDATION HANYANG …, priority 2017, dated 2020).
Each block holds one molecule with its values, some of them ahead of it.

Experiments:
[1] = target: human JNK3 enzyme (Homo sapiens, UniProt P53779); experiment: Measurement of JNK3 enzymatic activity (33P-ATP filter-binding method); type: biochemical; settings: ATP 10 μM, ATF2 3 μM
Description: First, a substrate was added to a prepared base reaction buffer solution (20 mM Hepes (pH 7.5), 10 mM MgCl2, 1 mM EGTA, 0.02% Brij35, 0.02 mg/ml BSA, 0.1 mM Na3VO4, 2 mM DTT, 1% DMSO), a human JNK3 enzyme was added into the prepared substrate solution, and the resulting solution was mixed. ATP (10 μM) and ATF2 (3 μM) were used as substrates, and among them, ATP was used as a common substrate. Next, the compound according to the present invention dissolved in 100% DMSO was added to an enzyme reaction solution, and incubated at room temperature for 20 minutes. Subsequently, ^33P-ATP was added to the mixed reaction solution to initiate the reaction, followed by incubation at room temperature for 2 hours, and enzymatic activity was detected by a filter-binding method. Specifically, 25 al per resulting solution was slowly spotted on P81 paper and placed in a scintillation vial, and then the paper was washed four times with 0.75% phosphoric acid for 10 minutes each and washed once with acetone for 5 minutes. 5 ml of a scintillation cocktail was added to the scintillation vial and signals were read using a scintillation counter.

[2] = test system: P-gp (MDR1); experiment: Evaluation of migration of blood-brain barrier (BBB migration evaluation system); type: in vitro ADME; settings: human, Caco-2-MDR1 cells; for Papp A→B: apical to basolateral, read-out: A to B (permeability coefficient Papp); for Papp B→A: basolateral to apical, read-out: B to A (permeability coefficient Papp)
Text: (§1) The blood-brain barrier (BBB) functions as a primary barrier to prevent the invasion of foreign substances, but acts as an obstacle to treatment in pathological circumstances. That is, therapeutics for the treatment of brain diseases or maintaining the condition thereof are very unlikely to permeate the blood-brain barrier, and thus are unable to be effectively used, and accordingly, the selection of drugs for the treatment of brain diseases is limited. […] […] amount of material permeating into mebrain, A: area, and C0: initial concentration of material)

[3] = test system: P-gp(MDR1)-overexpressing Caco-2-MDR1 cells; experiment: as above; type: in vitro ADME; settings: class in words
Text: as §1

[4] = test system: Alzheimer's disease transgenic mice; experiment: Reducing concentration of APP and beta-amyloid oligomer in brain tissue, western blotting; type: in vivo; settings: IV 15 mg/kg/day three times per 1 week for a total of 2 weeks, compared to non-treated 2×TG(veh)
Text: JNK3 is known to phosphorylate and activate amyloid precursor protein (APP), which is the main cause of Alzheimer's disease, to thus allow the APP to be located in a cell membrane, and promotes the conversion of APP to beta-amyloid, and it has been reported that, even in a case in which, after beta-amyloid is formed, the apoptosis of neurons is induced by toxicity thereof, the activation of JNK3 acts as a main cause. Based on these facts, in the present experimental example, the derivative of the present invention (compound 35d) was administered via intravenous injection (IV) to Alzheimer's disease transgenic mice in a dose of 15 mg/kg/day three times per 1 week for a total of 2 weeks, and then changes in the concentration of APP and beta-amyloid oligomer in the frontal lobe cortex were confirmed through western blotting. Meanwhile, normal mice (WT(veh)) were used as a control, and non-treated Alzheimer's disease transgenic mice (2×TG(veh)) were used as a comparative group.

human JNK3 enzyme, sequence (P53779 whole entry): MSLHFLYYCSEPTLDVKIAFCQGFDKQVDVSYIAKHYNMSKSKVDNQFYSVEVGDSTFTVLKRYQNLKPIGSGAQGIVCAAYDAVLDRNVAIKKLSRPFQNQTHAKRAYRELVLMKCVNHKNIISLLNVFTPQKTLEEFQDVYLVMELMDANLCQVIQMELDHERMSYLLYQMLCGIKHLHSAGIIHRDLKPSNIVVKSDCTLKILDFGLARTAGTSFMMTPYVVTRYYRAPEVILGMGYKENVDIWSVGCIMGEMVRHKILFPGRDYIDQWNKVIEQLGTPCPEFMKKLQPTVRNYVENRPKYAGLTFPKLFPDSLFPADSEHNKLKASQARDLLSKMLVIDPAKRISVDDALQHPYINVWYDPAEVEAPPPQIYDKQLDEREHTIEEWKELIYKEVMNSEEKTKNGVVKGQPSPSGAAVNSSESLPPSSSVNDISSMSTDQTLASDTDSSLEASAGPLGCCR

Structure (SMILES): O=C(C1CC1)N1CCC[C@H](Nc2nccc(-n3c(-c4ccc5c(c4)OCCO5)nc4ccc(O)cc43)n2)C1 [Compound 26c, (S)-cyclopropyl(3-((4-(2-(2,3-dihydrobenzo[b][1,4]dioxin-6-yl)-6-hydroxy-1H-benzo[d]imidazole-1-yl)pyrimidin-2-yl)amino)piperidine-1-yl)methanone]
IC50 ([1]; Table 2): 0.03 to 0.1 µM
efflux ratio [2]: 1.03
Papp A→B [2]: 192 nm/s
Papp B→A [2]: 198 nm/s
Permeability [3]: High

Structure (SMILES): O=C(C1CC1)N1CCC[C@@H](Nc2nccc(-n3c(-c4ccc5c(c4)OCCO5)nc4cc(O)c(O)cc43)n2)C1 [Compound 35d, (R)-cyclopropyl(3-(4-(2-(2,3-dihydrobenzo[b][1,4]dioxin-6-yl)-5,6-dihydroxy-1H-benzo[d]imidazole-1-yl)pyrimidin-2-ylamino)piperidine-1-yl)methanone]
IC50 ([1]; Table 3): < 0.03 µM
concentration of beta-amyloid oligomer in the frontal lobe cortex [4]: significantly reduced
expression level of APP in the frontal lobe cortex [4]: significantly reduced
efflux ratio [2]: 1.13
Papp A→B [2]: 173 nm/s
Papp B→A [2]: 196 nm/s
Permeability [3]: High

Structure (SMILES): O=C(C1CC1)N1CCC[C@@H](Nc2nccc(-n3c(-c4ccc5occc5c4)nc4cc(O)c(O)cc43)n2)C1 [Compound 35e, (R)-(3-(4-(2-(benzofuran-5-yl)-5,6-dihydroxy-1H-benzo[d]imidazole-1-yl)pyrimidin-2-ylamino)piperidine-1-yl)(cyclopropyl)methanone]
IC50 ([1]; Table 3): < 0.03 µM

Structure (SMILES): Oc1c2ccccc2c2c3c(cccc13)N=N2 [SP600125, reference compound]
IC50 ([1]; Table 1): 0.03 to 0.1 µM
IC50 ([1]; Table 2): 0.03 to 0.1 µM
IC50 ([1]; Table 3): 0.03 to 0.1 µM

More lines, now with the values ahead:

IC50 ([1]; Table 3): < 0.03 µM
Structure (SMILES): O=C(C1CC1)N1CCC[C@@H](Nc2nccc(-n3c(-c4ccc5ccccc5c4)nc4cc(O)c(O)cc43)n2)C1 [Compound 35a, (R)-cyclopropyl(3-(4-(5,6-dihydroxy-2-(naphthalene-2-yl)-1H-benzo[d]imidazole-1-yl)pyrimidin-2-ylamino)piperidine-1-yl)methanone]

IC50 ([1]; Table 3): < 0.03 µM
Structure (SMILES): O=C(C1CC1)N1CCC[C@@H](Nc2nccc(-n3c(-c4ccc(Cl)c(Cl)c4)nc4cc(O)c(O)cc43)n2)C1 [Compound 35b, (R)-cyclopropyl(3-(4-(2-(3,4-dichlorophenyl)-5,6-dihydroxy-1H-benzo[d]imidazole-1-yl)pyrimidin-2-ylamino)piperidine-1-yl)methanone]

IC50 ([1]; Table 3): < 0.03 µM
Structure (SMILES): O=C(C1CC1)N1CCC[C@@H](Nc2nccc(-n3c(-c4ccc(F)c(C(F)(F)F)c4)nc4cc(O)c(O)cc43)n2)C1 [Compound 35c, (R)-cyclopropyl(3-(4-(2-(4-fluoro-3-(trifluoromethyl)phenyl)-5,6-dihydroxy-1H-benzo[d]imidazole-1-yl)pyrimidin-2-ylamino)piperidine-1-yl)methanone]
